# Test results taken from patent US9176124B2, “Method for measurement of equol in biological sample by immunoassay, kit for the measurement, and method for determination of equol production ability of subject” (OTSUKA PHARMACEUTICAL CO., LTD., priority 2009, dated 2015).
# Legend:
# [1] = tested on: anti-equol rabbit antiserum (primary antibody); test: Cross-reactivity of the primary antibody by competitive ELISA (Test Example 2); assay type: binding; settings: (IC20 of S-equol/IC20 of each isoflavone, etc.)×100, S-equol assumed 100%, horseradish peroxidase-labeled S-equol as labeled antigen, samples in 100% charcoal-treated human serum
# Description: The above cross-reactivity can be explained as follows. Specifically, the above cross-reactivity indicates a ratio (%) of the concentration (IC20) of unlabeled S-equol at which the binding reaction of labeled S-equol to the anti-equol antibody can be inhibited by 20%, to the concentration (IC20) of each isoflavone and the like at which the binding reaction of labeled S-equol to the anti-equol antibody can be inhibited by 20%. More specifically, in the competitive reaction between labeled S-equol and unlabeled S-equol, the concentration of unlabeled S-equol at which the binding of labeled S-equol to the antibody is 80 is determined, assuming that the binding of labeled S-equol alone to the antibody is 100. Similarly, each unlabeled isoflavone and the like are competitively reacted with labeled S-equol, and the concentration of each isoflavone and the like at which binding of labeled S-equol to the antibody is 80 is determined.
# The thus-determined ratio (expressed in percentage) between the concentration (IC20) of the unlabeled S-equol and the concentration (IC20) of each isoflavone and the like is referred to as the cross-reactivity. This is represented by the following formula: Cross-reactivity (%)=(IC20 of S-equol/IC20 of each isoflavone, etc.)×100
# Herein, the cross-reactivity rate is determined by competitive ELISA, using S-equol as the standard antigen used for the preparation of a standard curve, as well as the labeled antigen that competes with equol in a biological sample.
# In this Test Example, the cross-reactivity of the primary antibody was examined for the case where competitive ELISA was employed and S-equol was used as both the standard antigen and the labeled antigen. Specifically, the cross-reactivity was examined as follows.
# Each of the isoflavones and the like shown in the later-described Table 4 was dissolved in 100% charcoal-treated human serum, and the resulting solution was used as a sample.
# An anti-equol rabbit antiserum was used as the primary antibody, as in Example 1. The antiserum was suitably diluted with the later-described antiserum dilution buffer, and used in the test.
# A goat anti-rabbit IgG antibody was used as a secondary antibody, as in Example 1. The antibody was immobilized to a solid phase as in Example 1, thus preparing a plate containing immobilized goat anti-rabbit IgG antibody.
# Horseradish peroxidase-labeled S-equol was used as a labeled antigen, as in Example 1.
# S-equol was used as a standard antigen, as in Example 1. Note that a standard equol solution in the forth of a mixed solution of S-equol (0, 30, 90, 270, or 810 ng/mL) and 100% charcoal-treated human serum was used.
# A concentration dilution series was prepared for each of the isoflavones and the like, and for unlabeled S-equol. The adsorption by each of the isoflavones and the like, and the adsorption by unlabeled S-equol in the competitive reaction were measured from when the concentrations of these substances were 0 to when the concentrations of these substances were added in excess amounts. Each of the thus-obtained measured values was checked against a standard curve obtained from the dilution series of the standard antigen (S-equol), so as to compare the inhibition of the reaction based on each calculated value. Thereby, the concentration (IC20) of each of the isoflavones and the like, as well as the concentration (IC20) of unlabeled S-equol, at which the binding reaction of labeled S-equol to the anti-equol antibody is inhibited by 20%, were determined.
# The competitive reaction was performed using competitive ELISA by a procedure similar to that in Example 1. Further, horseradish peroxidase was used as a labeling substance.
# The ratio (expressed in percentage) of the thus-obtained concentration of each of the isoflavones and the like to the thus-obtained concentration of unlabeled S-equol was regarded as the cross-reactivity. […]
# [2] = tested on: Labmaster Equol TR-FIA; test: Cross-reactivity of the known kit Labmaster Equol TR-FIA; assay type: binding; settings: with daidzein
# Description: Further, for example, when Labmaster Equol TR-FIA, which is a heretofore known kit manufactured by Labmaster, is used, the cross-reactivity rate with daidzein is 0.8% (see labmaster.fi/products/tr-fia-kitS-equol-tr-fia.htm), and the cross-reactivity of the kit is 10 times as high as that of the present kit.
# [3] = tested on: monoclonal antibody; settings: Clinical Chemistry 53: 748-756, 2007; cited from earlier work
# [4] = tested on: Labmaster Equol TR-FIA; settings: heretofore known kit; cited from earlier work
SMILES,Cross-reactivity Rate [1] [%],also measured
O=c1cc(-c2ccc(O)cc2)oc2cc(O)cc(O)c12 [Apigenin],0.00,
COc1ccc(-c2coc3cc(O)cc(O)c3c2=O)cc1 [Biochanin A],0.11,
O=c1c(-c2ccc(O)cc2)coc2cc(O)ccc12 [Daidzein],0.08,Cross-reactivity Rate ([1]; listed as daidzein): 0.08%; cross-reactivity of the Labmaster kit relative to the present kit [2]: 10 times; Cross-reactivity Rate [3]: < 0.04%; Cross-reactivity Rate [4]: 0.8%
O=c1c(-c2ccc(O)cc2)coc2cc(O[C@@H]3O[C@H](CO)[C@@H](O)[C@H](O)[C@H]3O)ccc12 [Daidzin],0.06,Cross-reactivity Rate ([1]; listed as daidzin): 0.06%
Oc1ccc(C2=Cc3ccc(O)cc3OC2)cc1 [Dehydroequol],0.33,Cross-reactivity Rate ([1]; listed as dehydroequol): 0.33%; Cross-reactivity Rate [4]: 42.3%
O=C1c2ccc(O)cc2OCC1c1ccc(O)cc1 (centres unmarked) [Dihydrodaizein],1.03,Cross-reactivity Rate ([1]; listed as dihydrodaidzein): 1.03%; Cross-reactivity Rate [4]: 4.0%
O=c1c(-c2ccc(O)cc2)coc2cc(O)cc(O)c12 [Genistein],0.05,
O=c1c(-c2ccc(O)cc2)coc2cc(O[C@@H]3O[C@H](CO)[C@@H](O)[C@H](O)[C@H]3O)cc(O)c12 [Genistin],0.06,
COc1cc2c(=O)c(-c3ccc(O)cc3)coc2cc1O [Glycitein],0.03,
COc1cc2c(=O)c(-c3ccc(O)cc3)coc2cc1O[C@@H]1O[C@H](CO)[C@@H](O)[C@H](O)[C@H]1O [Glycitin],0.02,
O=c1cc(-c2ccc(O)c(O)c2)oc2cc(O)cc(O)c12 [Luteolin],0.00,
Oc1ccc([C@@H]2COc3cc(O)ccc3C2)cc1 [R-Equol],13.24,Cross-reactivity Rate ([1]; listed as R-equol): 13.24%
Oc1ccc([C@H]2COc3cc(O)ccc3C2)cc1 [S-Equol],100.00,
